Earlier results as cited in patent publication US10086029B2, “Fermented plant extracts, methods of production and uses” (KEFIPLANT INC., priority 2006, dated 2018).

System: xanthine oxidase
Conditions: glycoside versus aglycone, literature study

## C[C@@H]1O[C@@H](OC[C@H]2O[C@@H](Oc3c(-c4ccc(O)c(O)c4)oc4cc(O)cc(O)c4c3=O)[C@H](O)[C@@H](O)[C@@H]2O)[C@H](O)[C@H](O)[C@H]1O [rutine]
  Activity as inhibitor of xanthine oxidase relative to quercetine: nearly ten times less active than quercetine
